Tests used:
A-549 = experiment: In vitro cytotoxicity (SRB), percentage growth inhibition, A-549; type: cell-based, human; conditions: A-549 (lung), 48 hours
Procedure: (§1) In vitro cytotoxicity against human cancer cell lines: The human cancer cell lines procured from National Cancer Institute, Frederick, U.S.A or National Center for Cell Science; Pune, India. were used in present study. Cells were grown in tissue culture flasks in complete growth medium (RPMI-1640 medium with 2 mM glutamine, 100 μg/ml streptomycin, pH 7.4, sterilized by filtration and supplemented with 10% fetal calf serum and 100 units/ml penicillin before use) at 37° C. in an atmosphere of 5% CO2 and 90% relative humidity in a carbon dioxide incubator. The cells at subconfluent stage were harvested from the flask by treatment with trypsin (0.5% in PBS containing 0.02% EDTA) for determination of cytotoxicity. Cells with viability of more than 98% as determined by trypan blue exclusion were used for assay. The cell suspension of the required cell density were prepared in complete growth medium with gentamycin (50 μg/ml) for determination of cytotoxicity.
(§2) A stock solutions of (2×10^−2 M) of test material were prepared in DMSO. The stock solutions were serially diluted with complete growth medium containing 50 μg/ml of gentamycin to obtain working test solutions of required concentrations.
(§3) In vitro cytotoxicity against human cancer cell lines was determined (Monks, A., Scudiero, D., Skehan, P, Shoemaker R., Paull, K., Vistica, D., Hose, C., Langley, J., Cronise, P., Vaigro-Wolff, A., Gray-Goodrich, M., Campbell, H., Mayo, J and Boyd M. J. Natl. Cancer Inst., 1991, 83, 757–766) using 96-well tissue culture plates. The 100 μl of cell suspension was added to each well of the 96-well tissue culture plate. The cells were incubated for 24 hours. Test materials in complete growth medium (100 μl) were added after 24 hours incubation to the wells containing cell suspension. The plates were further incubated for 48 hours (at 37° C. in an atmosphere of […] 90% relative humidity in a carbon dioxide incubator) after addition of test material and then the cell growth was stopped by gently layering trichloroacetic acid (TCA, 50 μl, 50%) on top of the medium in all the wells. The plates were incubated at 4° C. for one hour to fix the cells attached to the bottom of the wells. The liquid of all the wells was gently pipetted out and discarded. The plates were washed five times with distilled water to remove TCA, growth medium low molecular weight metabolites, serum proteins etc and air-dried. Cell growth was measured by staining with sulforhodamine B dye (Skehan et al., 1990). The adsorbed dye was dissolved in Tris-Buffer ([…], 0.01 M, pH 10.4) and plates were gently stirred for 5 minutes on a mechanical stirrer. The optical density was recorded on ELISA reader at 540 nm.
(§4) The cell growth was calculated by subtracting mean OD value of respective blank from the mean OD value of experimental set. Percent growth in presence of test material was calculated considering the growth in absence of any test material as 100% and in turn percent growth inhibition in presence of test material will be calculated.

HT-29 = experiment: In vitro cytotoxicity (SRB), percentage growth inhibition, HT-29; type: cell-based, human; conditions: HT-29 (colon), 48 hours
Procedure: as §1, §2, §3, §4

SiHa = experiment: In vitro cytotoxicity (SRB), percentage growth inhibition, SiHa; type: cell-based, human; conditions: SiHa (cervix), 48 hours
Procedure: as §1, §2, §3, §4

HOP-62 = experiment: In vitro cytotoxicity (SRB), percentage growth inhibition, HOP-62; type: cell-based, human; conditions: HOP-62 (lung), 48 hours
Procedure: as §1, §2, §3, §4

CT-DNA = experiment: DNA Thermal Denaturation Studies; type: binding; conditions: 1:5 [PBD]/[DNA], CT-DNA 100 μM, ligand 20 μM, sodium phosphate buffer pH 7.00, values ±0.1–0.2° C.; for Induced […]Tm ° C. after incubation at 37° C. 0 h: 0 h at 37° C.; for Induced […]Tm ° C. after incubation at 37° C. 18 h: 18 h at 37° C.
Procedure: For CT-DNA alone at pH 7.00±0.01, Tm=69.8° C.±0.01 (mean value from 10 separate determinations), all ΔTm values are ±0.1–0.2° C. For a 1:5 molar ratio of [PBD]/[DNA], where CT-DNA concentration=100 μM and ligand concentration=20 μM in aqueous sodium phosphate buffer [10 mM sodium phosphate+1 mM EDTA, pH 7.00±0.01].

HCT-15 = experiment: In vitro cytotoxicity (SRB), percentage growth inhibition, HCT-15; type: cell-based, human; conditions: HCT-15 (colon), 48 hours
Procedure: as §1, §2, §3, §4

SMILES | percentage growth inhibition A-549 (A-549; 10^−4 mol/L) | percentage growth inhibition HT-29 (HT-29; 10^−4 mol/L) | percentage growth inhibition HT-29 (HT-29; 10^−5 mol/L) | percentage growth inhibition HT-29 (HT-29; 10^−6 mol/L) | percentage growth inhibition SiHa (SiHa; 10^−5 mol/L) | percentage growth inhibition SiHa (SiHa; 10^−6 mol/L) | percentage growth inhibition HOP-62 (HOP-62; 10^−5 mol/L) | percentage growth inhibition HOP-62 (HOP-62; 10^−6 mol/L) | Induced […]Tm ° C. after incubation at 37° C. 0 h (CT-DNA) | Induced […]Tm ° C. after incubation at 37° C. 18 h (CT-DNA) | percentage growth inhibition HCT-15 (HCT-15; 10^−5 mol/L) | percentage growth inhibition HCT-15 (HCT-15; 10^−6 mol/L) | percentage growth inhibition SiHa (SiHa; 10^−4 mol/L) | percentage growth inhibition A-549 (A-549; 10^−5 mol/L) | percentage growth inhibition A-549 (A-549; 10^−6 mol/L) | percentage growth inhibition HOP-62 (HOP-62; 10^−4 mol/L)
COc1cc2c(cc1OCCCN1CCN(CCN3C(=O)c4cccc5cccc(c45)C3=O)CC1)N=C[C@@H]1CCCN1C2=O [VIIIb, 7-Methoxy-8-{3-[4-[2-(1,3-dioxo-benz[de]isoquinolin-2-yl)ethyl]piperazin-1-yl]propyl}-oxy-(11aS)-1,2,3,11a tetrahydro-5H-pyrrolo[2,1-c][1,4]benzodiazepin-5-one] | 88% | 88% | 85% | 91% | 44% | 54% | 86% | 72% | 25.8 °C | 26.7 °C | 59% | 58% | – | – | – | –
COc1cc2c(cc1OCCCCN1CCN(CCCCN3C(=O)c4cccc5cccc(c45)C3=O)CC1)N=C[C@@H]1CCCN1C2=O [VIIIe, 7-Methoxy-8-{4-[4-[4-(1,3-dioxo-benz[de]isoquinolin-2-yl)butyl]piperazin-1-yl]butyl}-oxy-(11aS)-1,2,3,11a tetrahydro-5H-pyrrolo[2,1-c][1,4]benzodiazepin-5-one] | 93% | 92% | 78% | 67% | 40% | 44% | 93% | 80% | 20.9 °C | 21.7 °C | 62% | 59% | 42% | – | – | –
COc1cc2c(cc1OCCN1CCN(CCN3C(=O)c4cccc5cccc(c45)C3=O)CC1)N=C[C@@H]1CCCN1C2=O [VIIIa, 7-Methoxy-8-{2-[4-[2-(1,3-dioxo-benz[de]isoquinolin-2-yl)ethyl]piperazin-1-yl]ethyl}-oxy-(11aS)-1,2,3,11a tetrahydro-5H-pyrrolo[2,1-c][1,4]benzodiazepin-5-one] | – | – | – | – | – | – | – | – | 21.9 °C | 22.7 °C | – | – | – | – | – | –
COc1cc2c(cc1OCCCCN1CCN(CCN3C(=O)c4cccc5cccc(c45)C3=O)CC1)N=C[C@@H]1CCCN1C2=O [VIIIc, 7-Methoxy-8-{4-[4-[2-(1,3-dioxo-benz[de]isoquinolin-2-yl)ethyl]piperazin-1-yl]butyl}-oxy-(11aS)-1,2,3,11a tetrahydro-5H-pyrrolo[2,1-c][1,4]benzodiazepin-5-one] | 95% | 94% | 86% | 80% | 39% | – | 93% | 86% | 23.4 °C | 24.2 °C | 69% | 60% | 56% | – | – | –
COc1cc2c(cc1O)N=CC1CCCN1C2=O (centres unmarked) [DC-81, reference compound] | – | – | – | – | – | – | – | – | 0.3 °C | 0.7 °C | – | – | – | – | – | –
COc1cc2c(cc1OCCCN1CCN(CCCN3C(=O)c4cccc5cccc(c45)C3=O)CC1)N=C[C@@H]1CCCN1C2=O [VIIId, 7-Methoxy-8-{3-[4-[3-(1,3-dioxo-benz[de]isoquinolin-2-yl)propyl]piperazin-1-yl]propyl}-oxy-(11aS)-1,2,3,11a tetrahydro-5H-pyrrolo[2,1-c][1,4]benzodiazepin-5-one] | 95% | 95% | 62% | 63% | 65% | 31% | – | – | 13.1 °C | 14.3 °C | – | – | 85% | 30% | 51% | 78%

Reference: patent publication US6979684B1, “Pyrrolo[2,1-c][1,4]benzodiazepine-napthalimide conjugates linked through piperazine moiety and process for preparation thereof” (Council of Scientific and Industrial Research, priority 2004, dated 2005)
